This passage reports MIC results from US6255335A, “Substituted 2-oxo-alkanoic acid-[2-(indol-3-yl)-ethyl] amides” (Bayer Aktiengesellschaft, priority 1998, dated 2001).

Converted amounts (≈) assume the structure as drawn.

Assay type in all cases: cell-based
One test has as its system Staph. interm. The test can be described thus: MIC by serial dilution on iso-sensitest agar, Staph. interm. As to conditions: strain ATCC 29663; 37° C., about 20 hours. The protocol:
(§1) The minimum inhibitory concentrations (MIC) of the compounds according to the invention were determined by serial dilution methods on iso-sensitest agar (Oxoid). For each test substance, a number of agar plates were prepared which, each with a doubled dilution, contained decreasing concentrations of the active compound. The agar plates were inoculated using a multipoint inoculator (Denley). For inoculation, overnight cultures of the pathogens were used which had previously been diluted such that each inoculation point contained about 10^4 colony-forming particles. The inoculated agar plates were incubated at 37° C., and the bacterial growth was read off after about 20 hours. The MIC value (μg/ml) indicates the lowest active compound concentration at which no growth could be detected with the naked eye.

The next test deals with Staph. hyicus. The test is described as follows: MIC by serial dilution on iso-sensitest agar, Staph. hyicus. As to conditions: Staphylococcus hyicus, 20 h, 37° C., about 20 hours. As to the method:
as §1

In the next test the test system is Staph. aureus. The test is described as follows: MIC by serial dilution on iso-sensitest agar, Staph. aureus. As to conditions: Staphylococcus aureus, 37° C., about 20 hours. The protocol:
as §1

Where [1] appears, read: strain 9621, actual clinical isolate.
The mark [2] stands for this setting: strain 9622, actual clinical isolate.
Setting [3] is: strain 9637, actual clinical isolate.
The mark [4] stands for this setting: strain 9641, actual clinical isolate.

Turning to `CC(C)CC(=O)C(=O)NCCc1cn(C(C)C)c2ccccc12` [Compound 4], the MIC against Staph. interm. is 2 µg/mL (≈ 6.36 µM); in the test on Staph. hyicus (setting [1]) it was 0.06 µg/mL (≈ 0.191 µM); against Staph. hyicus (setting [2]), 0.25 µg/mL (≈ 0.795 µM); against Staph. hyicus (setting [3]), 0.125 µg/mL (≈ 0.398 µM); in the test with Staph. hyicus (setting [4]) it was 0.125 µg/mL (≈ 0.398 µM); against Staph. aureus (ATCC6538, strain ATCC 6538) it was 0.125 µg/mL (≈ 0.398 µM). The MIC was found to be 0.06 µg/mL (≈ 0.191 µM) with Staph. aureus (ATCC25923, strain ATCC 25923) and 0.25 µg/mL (≈ 0.795 µM) against Staph. aureus (ATCC29213, strain ATCC 29213).
Consider `CC(C)CC(=O)C(=O)NCCc1c[nH]c2ccccc12` [B, reference compound], for which the minimal inhibitory concentration (MIC) against Staph. interm. is 2 µg/mL (≈ 7.34 µM); in the test on Staph. hyicus (setting [1]), 0.25 µg/mL (≈ 0.918 µM); in the test with Staph. hyicus (setting [2]), 0.03 µg/mL (≈ 0.11 µM); against Staph. hyicus (setting [3]) it was 0.25 µg/mL (≈ 0.918 µM); against Staph. hyicus (setting [4]), 0.25 µg/mL (≈ 0.918 µM); against Staph. aureus (ATCC6538, strain ATCC 6538), 0.125 µg/mL (≈ 0.459 µM). The minimum inhibitory concentration (MIC) in the test with Staph. aureus (ATCC25923, strain ATCC 25923) is 0.25 µg/mL (≈ 0.918 µM); in the test on Staph. aureus (ATCC29213, strain ATCC 29213), 0.25 µg/mL (≈ 0.918 µM).
Take `CC(C)CC(=O)C(=O)NCCc1cn(C)c2ccccc12` [Compound 2]: the MIC against Staph. interm. stood at 2 µg/mL (≈ 6.98 µM); against Staph. hyicus (setting [1]) it was 0.03 µg/mL (≈ 0.105 µM); in the test with Staph. hyicus (setting [2]) it was 0.03 µg/mL (≈ 0.105 µM); against Staph. hyicus (setting [3]), 0.03 µg/mL (≈ 0.105 µM); in the test with Staph. hyicus (setting [4]) it was 0.03 µg/mL (≈ 0.105 µM); against Staph. aureus (ATCC6538, strain ATCC 6538), 0.03 µg/mL (≈ 0.105 µM). Also, the minimum inhibitory concentration (MIC) is 0.03 µg/mL (≈ 0.105 µM) with Staph. aureus (ATCC25923, strain ATCC 25923) and 0.03 µg/mL (≈ 0.105 µM) in the test with Staph. aureus (ATCC29213, strain ATCC 29213).
In the case of `CCC(C)C(=O)C(=O)NCCc1cn(C)c2ccccc12` (stereo not shown) [Compound 1], the minimum inhibitory concentration (MIC) in the test with Staph. interm. is 2 µg/mL (≈ 6.98 µM); in the test with Staph. hyicus (setting [1]) it was 0.06 µg/mL (≈ 0.21 µM); against Staph. hyicus (setting [2]), 0.06 µg/mL (≈ 0.21 µM); against Staph. hyicus (setting [3]), 0.015 µg/mL (≈ 0.0524 µM); in the test on Staph. hyicus (setting [4]), 0.015 µg/mL (≈ 0.0524 µM); with Staph. aureus (ATCC6538, strain ATCC 6538) it was 0.015 µg/mL (≈ 0.0524 µM). For the same compound, the MIC with Staph. aureus (ATCC25923, strain ATCC 25923) is 0.015 µg/mL (≈ 0.0524 µM); with Staph. aureus (ATCC29213, strain ATCC 29213) it was 0.015 µg/mL (≈ 0.0524 µM).
Turning to `CCC(C)C(=O)C(=O)NCCc1cn(Cc2ccccc2)c2ccccc12` (stereo not shown) [Compound 6], the MIC against Staph. interm. was 8 µg/mL (≈ 22.1 µM); against Staph. hyicus (setting [1]), 1 µg/mL (≈ 2.76 µM); in the test with Staph. hyicus (setting [2]), 1 µg/mL (≈ 2.76 µM); in the test on Staph. hyicus (setting [3]), 0.125 µg/mL (≈ 0.345 µM); against Staph. hyicus (setting [4]), 0.125 µg/mL (≈ 0.345 µM); with Staph. aureus (ATCC6538, strain ATCC 6538), 0.125 µg/mL (≈ 0.345 µM). Also, the MIC is 0.125 µg/mL (≈ 0.345 µM) with Staph. aureus (ATCC25923, strain ATCC 25923) and 0.125 µg/mL (≈ 0.345 µM) in the test with Staph. aureus (ATCC29213, strain ATCC 29213).
As for `CCC(C)C(=O)C(=O)NCCc1cn(C(C)C)c2ccccc12` (stereo not shown) [Compound 3], the minimal inhibitory concentration (MIC) with Staph. interm. worked out at 4 µg/mL (≈ 12.7 µM); in the test with Staph. hyicus (setting [1]) it was 1 µg/mL (≈ 3.18 µM); against Staph. hyicus (setting [2]), 0.5 µg/mL (≈ 1.59 µM); with Staph. hyicus (setting [3]), 0.03 µg/mL (≈ 0.0954 µM); with Staph. hyicus (setting [4]), 0.03 µg/mL (≈ 0.0954 µM); in the test on Staph. aureus (ATCC6538, strain ATCC 6538), 0.03 µg/mL (≈ 0.0954 µM). The minimal inhibitory concentration (MIC) against Staph. aureus (ATCC25923, strain ATCC 25923) worked out at 0.03 µg/mL (≈ 0.0954 µM); in the test with Staph. aureus (ATCC29213, strain ATCC 29213) it was 0.03 µg/mL (≈ 0.0954 µM).
Turning to `CC(C)CC(=O)C(=O)NCCc1cn(-c2ccccc2)c2ccccc12` [Compound 5], the MIC against Staph. interm. stood at 1 µg/mL (≈ 2.87 µM); with Staph. hyicus (setting [1]) it was 0.06 µg/mL (≈ 0.172 µM); with Staph. hyicus (setting [2]), 0.015 µg/mL (≈ 0.043 µM); against Staph. hyicus (setting [3]), 0.06 µg/mL (≈ 0.172 µM); in the test with Staph. hyicus (setting [4]), 0.06 µg/mL (≈ 0.172 µM); in the test with Staph. aureus (ATCC6538, strain ATCC 6538), 0.03 µg/mL (≈ 0.0861 µM). The MIC in the test with Staph. aureus (ATCC25923, strain ATCC 25923) was determined as 0.06 µg/mL (≈ 0.172 µM); in the test on Staph. aureus (ATCC29213, strain ATCC 29213) it was 0.06 µg/mL (≈ 0.172 µM).
Regarding `CCC(C)C(=O)C(=O)NCCc1c[nH]c2ccccc12` (stereo not shown) [A, reference compound], the MIC amounted to 8 µg/mL (≈ 29.4 µM) against Staph. interm.; 1 µg/mL (≈ 3.67 µM) with Staph. hyicus (setting [1]); 0.5 µg/mL (≈ 1.84 µM) in the test with Staph. hyicus (setting [2]); 0.25 µg/mL (≈ 0.918 µM) against Staph. hyicus (setting [3]); 0.25 µg/mL (≈ 0.918 µM) with Staph. hyicus (setting [4]); 0.25 µg/mL (≈ 0.918 µM) against Staph. aureus (ATCC6538, strain ATCC 6538). Further, the MIC amounted to 0.125 µg/mL (≈ 0.459 µM) in the test with Staph. aureus (ATCC25923, strain ATCC 25923) and 0.125 µg/mL (≈ 0.459 µM) in the test with Staph. aureus (ATCC29213, strain ATCC 29213).

The MIC is the lowest concentration found to suppress growth. Lower therefore signals a more susceptible organism.
